Assay results published in ChEMBL document CHEMBL1201862, “PubChem BioAssay data set” (2004).
Calls of active or inactive are those of the source.

Columns and labels:
[1] = tested on: H4; experiment: Luminescence Cell-Based Dose Response HTS to Identify Activators of 5'UTR Stem-Loop Driven Prion Protein mRNA Translation in H4 Neuroglioblastoma Cells. [Related pubchem assays: 1829 (Project Summary), 1814 (Primary HTS)]; format: functional; settings: Homo sapiens
[2] = Luminescence Cell-Based Dose Response HTS to Identify Activators of Luciferase Translation or Activity in H4 […] Cells. [Related pubchem assays: 1829 (Project Summary), 1814 (Primary HTS)]; format: functional
[3] = target: T1, Heat shock factor protein 1 (Mus musculus, UniProt P38532); experiment: HSF1 potentiators in luciferase reporter cells, confirmation, cell-based, NIH3T3, luminescence, dose retest (AID 435004); format: functional;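 further: stress induced by proteasome inhibitor MG132 added 30 min after compound; luciferase reporter driven by HSF1 response element in NIH3T3 cells; actives raise luminescence as potentiators of the MG132 stress response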
T1 sequence (P38532 whole entry): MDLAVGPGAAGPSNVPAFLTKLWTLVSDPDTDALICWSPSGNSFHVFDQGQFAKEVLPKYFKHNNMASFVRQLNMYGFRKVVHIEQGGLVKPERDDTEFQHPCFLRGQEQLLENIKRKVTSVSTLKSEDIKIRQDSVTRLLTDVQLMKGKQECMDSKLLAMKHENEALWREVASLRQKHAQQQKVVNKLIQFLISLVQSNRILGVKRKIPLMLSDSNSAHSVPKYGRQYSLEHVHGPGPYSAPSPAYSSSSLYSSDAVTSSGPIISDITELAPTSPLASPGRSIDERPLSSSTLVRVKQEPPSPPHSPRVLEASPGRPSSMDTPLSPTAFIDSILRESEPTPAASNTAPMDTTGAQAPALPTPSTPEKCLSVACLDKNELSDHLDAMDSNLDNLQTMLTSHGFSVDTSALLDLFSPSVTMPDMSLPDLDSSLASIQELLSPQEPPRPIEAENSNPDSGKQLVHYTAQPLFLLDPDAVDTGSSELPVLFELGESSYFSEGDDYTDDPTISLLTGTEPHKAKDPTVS

[4] = NIH-3T3 fibroblast cytotoxicity, dose response, cytotoxicity control, cell-based, fluorescence, Alamar Blue, secondary assay (AID 2327); format: functional;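 further: NIH-3T3 mouse fibroblasts cultured with fluconazole at 8 µg/mL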
[5] = target: Cytochrome P450 2C19 (Homo sapiens, UniProt P33261); experiment: Cytochrome panel assay with activity outcomes. Panel member name: p450-cyp2c19 Compounds with AC50 equal or less than 10 uM are considered active; format: functional; settings: read-out: AC50
Sequence of Cytochrome P450 2C19 (P33261 whole entry): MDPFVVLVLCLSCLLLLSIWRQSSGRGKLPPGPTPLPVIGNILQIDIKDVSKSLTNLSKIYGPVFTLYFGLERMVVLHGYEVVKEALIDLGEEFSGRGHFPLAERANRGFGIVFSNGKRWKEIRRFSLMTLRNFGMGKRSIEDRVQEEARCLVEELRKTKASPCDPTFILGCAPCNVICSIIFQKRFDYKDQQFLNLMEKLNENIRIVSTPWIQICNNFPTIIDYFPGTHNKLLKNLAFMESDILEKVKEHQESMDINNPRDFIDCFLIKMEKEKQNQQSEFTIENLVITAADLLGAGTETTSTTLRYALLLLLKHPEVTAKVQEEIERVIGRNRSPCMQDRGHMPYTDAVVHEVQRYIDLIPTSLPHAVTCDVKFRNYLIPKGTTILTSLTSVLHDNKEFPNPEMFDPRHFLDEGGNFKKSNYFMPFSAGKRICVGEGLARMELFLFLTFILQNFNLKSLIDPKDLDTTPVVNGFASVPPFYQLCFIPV

[6] = target: Cytochrome P450 3A4 (Homo sapiens, UniProt P08684);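 further: CYP3A4 tested as one member of a cytochrome P450 panel screen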
Sequence of Cytochrome P450 3A4 (P08684 whole entry): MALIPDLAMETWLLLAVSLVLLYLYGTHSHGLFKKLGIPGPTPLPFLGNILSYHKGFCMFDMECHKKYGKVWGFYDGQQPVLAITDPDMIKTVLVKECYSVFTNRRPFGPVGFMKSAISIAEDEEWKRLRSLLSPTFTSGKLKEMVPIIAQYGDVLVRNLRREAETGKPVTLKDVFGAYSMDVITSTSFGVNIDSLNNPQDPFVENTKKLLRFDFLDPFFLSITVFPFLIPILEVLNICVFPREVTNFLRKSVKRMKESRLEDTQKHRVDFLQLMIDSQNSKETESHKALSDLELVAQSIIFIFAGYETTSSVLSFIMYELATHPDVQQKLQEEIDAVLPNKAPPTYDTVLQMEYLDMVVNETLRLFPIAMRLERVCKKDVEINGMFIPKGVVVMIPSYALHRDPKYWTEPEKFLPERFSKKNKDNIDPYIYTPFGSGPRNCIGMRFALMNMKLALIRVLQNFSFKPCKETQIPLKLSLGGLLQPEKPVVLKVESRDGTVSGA

[7] = target: T2, Corticotropin-releasing factor receptor 2/Corticotropin-releasing factor-binding protein (Homo sapiens, UniProt P24387+Q13324); experiment: activators of CRF receptor 2 with binding protein – uHTS hits, confirmation (AID 602473); format: functional; settings: read-out: EC50_Mean
T2 sequence (Q13324 whole entry): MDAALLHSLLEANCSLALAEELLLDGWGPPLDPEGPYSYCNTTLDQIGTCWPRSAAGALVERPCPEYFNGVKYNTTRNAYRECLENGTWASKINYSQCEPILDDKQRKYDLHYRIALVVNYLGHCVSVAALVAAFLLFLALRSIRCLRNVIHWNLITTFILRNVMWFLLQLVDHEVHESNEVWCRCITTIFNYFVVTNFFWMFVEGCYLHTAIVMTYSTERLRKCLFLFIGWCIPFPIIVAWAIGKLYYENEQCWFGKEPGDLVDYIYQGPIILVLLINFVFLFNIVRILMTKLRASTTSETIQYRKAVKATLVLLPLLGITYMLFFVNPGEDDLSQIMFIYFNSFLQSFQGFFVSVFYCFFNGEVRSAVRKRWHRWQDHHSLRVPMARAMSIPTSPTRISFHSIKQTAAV
T2 sequence (P24387 whole entry): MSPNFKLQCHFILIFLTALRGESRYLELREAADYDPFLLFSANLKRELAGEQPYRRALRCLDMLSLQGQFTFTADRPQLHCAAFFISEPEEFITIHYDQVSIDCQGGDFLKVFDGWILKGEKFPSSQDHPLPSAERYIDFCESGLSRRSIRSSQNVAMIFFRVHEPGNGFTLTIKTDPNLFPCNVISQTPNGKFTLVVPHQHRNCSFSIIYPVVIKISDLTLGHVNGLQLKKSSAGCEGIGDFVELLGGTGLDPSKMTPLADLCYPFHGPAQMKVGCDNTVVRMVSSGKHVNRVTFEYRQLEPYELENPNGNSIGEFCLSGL

[8] = tested on: Streptococcus sp. 'group A'; experiment: growth inhibition of control SK(-) GAS strain, dose response, counter-screen for streptokinase expression inhibitor project, luminescence, kanamycin, BacTiterGlo, confirmation (AID 1900); format: functional, organism-based
[9] = tested on: Streptococcus; experiment: Group A Streptococcus viability loss, dose response, counter-screen for streptokinase expression inhibitor project, luminescence, BacTiterGlo (AID 1915); format: functional, organism-based;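 further: potency for reduction of bacterial viability or growth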
[10] = target: T3, Cytochrome P450 1A2 (Homo sapiens, UniProt P05177);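 further: PubChem cytochrome P450 panel assay, CYP1A2 panel member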
T3 sequence (P05177 whole entry): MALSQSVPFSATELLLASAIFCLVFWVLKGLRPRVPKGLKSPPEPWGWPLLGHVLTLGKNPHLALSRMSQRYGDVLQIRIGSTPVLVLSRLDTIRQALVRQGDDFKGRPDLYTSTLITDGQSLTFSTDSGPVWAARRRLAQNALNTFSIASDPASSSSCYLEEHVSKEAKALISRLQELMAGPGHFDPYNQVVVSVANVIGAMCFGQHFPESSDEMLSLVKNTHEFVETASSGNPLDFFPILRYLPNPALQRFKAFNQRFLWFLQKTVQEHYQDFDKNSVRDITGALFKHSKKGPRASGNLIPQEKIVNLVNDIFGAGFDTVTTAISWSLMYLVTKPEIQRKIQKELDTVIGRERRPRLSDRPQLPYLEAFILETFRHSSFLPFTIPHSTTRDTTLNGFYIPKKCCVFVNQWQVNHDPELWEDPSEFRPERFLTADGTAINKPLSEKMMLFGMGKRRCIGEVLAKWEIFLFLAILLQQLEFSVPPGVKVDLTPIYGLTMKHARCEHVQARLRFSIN

[11] = target: T1, Heat shock factor protein 1; experiment: inhibition of MG132-induced HSE-luciferase signal, confirmation, cell-based, NIH3T3, luminescence, dose retest (AID 2382); format: functional;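 further: NIH3T3 fibroblasts with HSF1-driven luciferase reporter stressed by proteasome inhibitor MG132; luminescence from HSF1-driven luciferase expression after 8 hours of MG132 stress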

## CCOc1ccc(N2C(=O)C(Cl)=C(Nc3ccccc3O)C2=O)cc1
[1]
  EC50: 0.107 µM (active)
[2]
  EC50: > 120 µM (not active)

## C=CCSC1=C(C#N)C(c2cccc(OC)c2)CC(=O)N1 (stereo not drawn)
[3]
  EC50: > 260 µM (inactive)

## CC(=O)c1ccc(N2CCN(C(=O)c3[nH]nc4ccccc34)CC2)cc1
[3]
  EC50: > 260 µM (inactive)

## Cc1cc(C)n(-c2nc3ccccc3nc2N2CCN(C(=O)c3ccc(F)cc3)CC2)n1
[3]
  EC50: > 260 µM (inactive)

## COc1ccc(CN(C)Cc2c(O)ccc3ccccc23)cc1
[3]
  EC50: 38.8 µM (active)

## Cc1ccc2nsnc2c1NC(=O)COc1ccccc1F
[4]
  EC50: > 150 µM (inconclusive)

## CN1CCCC2(CCN(C(=O)c3cc(C(F)(F)F)cc(C(F)(F)F)c3)CC2)C1
[5]
  AC50: 25.1 µM (inconclusive)
[6]
  AC50: 25.1 µM (inconclusive)

## CCC1Oc2ccc(C)cc2N(Cc2cccc(C)c2)C1=O (stereo not drawn)
[3]
  EC50: > 260 µM (inactive)

## O=C(COC(=O)[C@H](Cc1ccccc1)NC(=O)c1ccco1)NCc1ccccc1
[7]
  EC50: 10.4 µM (active)

## COc1ccc(NC(=O)C(NCC(C)C)c2ccccc2)cc1Cl (stereo not drawn)
[3]
  EC50: > 260 µM (inactive)

## CN(Cc1ccc(OC(F)F)cc1)Cc1nc(O)c2cc(Br)cc(Br)c2n1
[8]
  EC50: 4.31 µM (active)
[9]
  EC50: > 150 µM (not active)

## CCCSc1nnc2n(-c3ccccc3OC)c(=O)c3c4c(sc3n12)CCC4
[3]
  EC50: > 260 µM (inactive)

## CC(C)(C)C(=O)N(CCN(C(=O)C(C)(C)C)c1ccccc1)c1ccccc1
[5]
  AC50: 8.91 µM (inconclusive)
[6]
  AC50: 7.08 µM (inconclusive)

## O=C(c1cnccn1)N1CCC2(CC1)CN(c1cccc(-c3ccccc3)c1)C2
[10]
  AC50: 15.8 µM (inconclusive)
[6]
  AC50: 39.8 µM (inconclusive)

## S=C(c1cn(Cc2ccc(Br)cc2)c2ccccc12)N1CCOCC1
[3]
  EC50: > 260 µM (inactive)

## Nc1c(-c2ccsc2)cnc2ncnn12
[3]
  EC50: > 260 µM (inactive)

## CC(c1ccccc1C(O)(c1ccccc1)c1ccccc1)N(C)C (stereo not drawn)
[7]
  EC50: 4.62 µM (active)

## CCOc1ccc(N2C(=O)/C(=C\NNC(=O)C3COc4ccccc4O3)c3ccccc3C2=O)cc1 (stereo not drawn)
[8]
  EC50: 1.63 µM (active)
[9]
  EC50: 5.75 µM (active)

## Cc1noc(C)c1C(=O)N1CCC2(CCCN(C(=O)Nc3cccc(F)c3)C2)CC1
[10]
  AC50: 15.8 µM (inconclusive)
[6]
  AC50: 15.8 µM (inconclusive)

## N=C(NOC(=O)/C=C/c1ccccc1Cl)c1cccnc1
[1]
  EC50: 22.8 µM (active)

## COC(=O)C1=CN(c2ccc(F)cc2)C=C(C(=O)OC)C1c1cccc(Br)c1
[3]
  EC50: > 260 µM (inactive)

## Cc1nc(C(=N)NOC(=O)Cc2ccccc2)no1
[3]
  EC50: > 260 µM (inactive)

## CN=C(S)NCCC(c1ccccc1)c1ccccc1
[3]
  EC50: > 260 µM (inactive)

## O=C(Nc1cccn(Cc2c(Cl)cccc2Cl)c1=O)c1ccc(Cl)cc1Cl
[10]
  AC50: 2.82 µM (inconclusive)
[6]
  AC50: 14.1 µM (inconclusive)

## CCOc1ccc(-n2c(=S)sc3c(O)nc(SCC(=O)NC(C)CC)nc32)cc1 (stereo not drawn)
[3]
  EC50: > 260 µM (inactive)

## COc1ccc(C(NC(=O)c2ccc(O)nc2)C(=O)Nc2ccc(C(C)C)cc2)cc1 (stereo not drawn)
[11]
  EC50: > 195 µM (not active)
[7]
  EC50: > 53 µM (inactive)

## COC(=O)c1ccc(OC(=O)CCN2C(=O)C3CCCCC3C2=O)cc1 (stereo not drawn)
[3]
  EC50: > 260 µM (inactive)

## C=CCn1c(C)cc(C(=O)CSc2nc(N)cc(N)n2)c1C
[3]
  EC50: > 260 µM (inactive)

## COc1ccc(-c2nc3cnc(OC)nc3n(-c3ccc(OC)cc3)c2=O)cc1
[10]
  AC50: 0.316 µM (inconclusive)
[6]
  AC50: 15.8 µM (inconclusive)

## COc1cc(OC)c(C2C(C(=O)O)c3ccccc3C(=O)N2C)cc1OC (stereo not drawn)
[10]
  AC50: 31.6 µM (inconclusive)
[6]
  AC50: 0.355 µM (inconclusive)

## O=C(COc1ccccc1)NC(=S)Nc1cccc2cc(O)ccc12
[3]
  EC50: > 260 µM (inactive)

## O=C(NCc1cccc(Cl)c1)c1cccc(S(=O)(=O)N2CCCC2)c1
[7]
  EC50: > 53 µM (inactive)

## Cc1nc2c(c(=O)c3ccccc3n2C)c(=O)n1C1CCCCCC1
[7]
  EC50: 9.6 µM (active)

## Cc1cccc(-n2nnc3cnn(C)c3c2=O)c1
[10]
  AC50: 12.6 µM (inconclusive)
[6]
  AC50: 31.6 µM (inconclusive)

## Nn1c(SCC(=O)N2CCOCC2)nnc1C1CC1
[3]
  EC50: > 260 µM (inactive)

## Cc1ccc(-c2nc(-c3cccnc3)no2)c(C)c1
[4]
  EC50: > 150 µM (inactive)

## CCOC(=O)c1ccc(NC(=O)CCS(=O)(=O)c2ccc(Br)s2)cc1
[3]
  EC50: > 260 µM (inactive)

## Cn1ncc2c(Nc3ccc(Br)cc3)nc(Nc3ccc(Br)cc3)nc21
[8]
  EC50: 1.01 µM (active)
[9]
  EC50: 2.38 µM (active)

## CCOC(=O)/C(=C\c1ccc(N2CCC(c3ccccc3)=N2)cc1)C(C)=O
[7]
  EC50: 7.05 µM (active)

## COc1ccc(-c2nnc3ccc(SCC(=O)NCC4CCCO4)nn23)cc1 (stereo not drawn)
[3]
  EC50: > 260 µM (inactive)

## Cc1ccc(C(=O)NNC(=O)c2ccccc2-n2cccc2)cc1
[3]
  EC50: > 260 µM (inactive)

## CC(=O)Nc1ccc(N2C(=O)C3C4CC(=O)C(c5ccccc54)C3C2=O)cc1 (stereo not drawn)
[3]
  EC50: > 260 µM (inactive)

## O=S(=O)(c1ccc(Cl)cc1)N1CCC2(CC1)OCCN2S(=O)(=O)c1cccs1
[3]
  EC50: 227 µM (active)

## COc1ccc(OC)c(S(=O)(=O)Nc2ccccc2O)c1
[3]
  EC50: > 260 µM (inactive)

## Cc1cccn2c(=O)c3cc(C#N)/c(=N\C(=O)c4cccnc4)n(CC4CCCO4)c3nc12 (stereo not drawn)
[7]
  EC50: > 53 µM (inactive)

## O=C(NC(C(=O)N/N=C/c1cccnc1)c1nnc(O)c2ccccc12)c1ccccc1 (stereo not drawn)
[7]
  EC50: 7.94 µM (active)

## COc1ccc(NC(=O)c2ccc(-c3ccc(-c4noc(C)n4)cc3C)cc2)cc1OCCN(C)C
[10]
  AC50: 39.8 µM (inconclusive)
[6]
  AC50: 15.8 µM (inconclusive)

## O=c1[nH]c2ccccc2c2cn(-c3ccccc3)nc12
[3]
  EC50: 126 µM (active)

## Cc1nn(-c2ccc(Cl)cc2)c(O)c1/C=N/n1c(C)nc2ccccc2c1=O
[8]
  EC50: 3.48 µM (active)
[9]
  EC50: 7.22 µM (active)

## CC/C(=N/Cc1ccc(Cl)c(Cl)c1)c1nc(-c2ccco2)oc1O
[3]
  EC50: 20 µM (active)

## CC(C)N1C(=O)/C(=C\c2c[nH]c3ccccc23)S/C1=N\c1ccccc1
[10]
  AC50: 4.47 µM (inconclusive)
[5]
  AC50: 2 µM (inconclusive)
[6]
  AC50: 22.4 µM (inconclusive)
